According to patent US7026356B2, “Fatty acid analogues for the treatment of diseases caused by the pathological proliferation of smooth muscle cells” (priority 1998, dated 2006):

Legend:
[1] = Local administration of radiolabelled TTA, presence in coronary arteries; format: in vivo; details: administered locally in two extra pigs; after 4 and 6 weeks
[2] = Plasma lipid lowering on feeding moderate doses to animals; format: in vivo, rats, mice, rabbits and dogs; details: for potency in lowering plasma triacylglycerols and cholesterol: compared with polyunsaturated fatty acids like EPA
Text: (§1) Feeding moderate doses of TTA to animals like rats, mice, rabbits and dogs decreased both plasma cholesterol and triacylglycerol levels within days of treatment.

[3] = tested on: strains of Escherichia coli; assay: Tests for mutagenic activity in bacterial strains; format: cell-based; details: E. coli; 3–1000 mg/plate (TTA), 2–5000 mg/plate (TSA)
Text: (§2) Tests for mutagenic activity have been performed by Covance Laboratories Limited, England. […] Furthermore, TTA was not mutagenic when tested in mouse lymphoma cells […] L5178Y.

[4] = tested on: strains of Salmonella typhimurium; assay: Tests for mutagenic activity in bacterial strains; format: cell-based; details: S. typhimurium; 3–1000 mg/plate (TTA), 2–5000 mg/plate (TSA)
Text: as §2

[5] = tested on: cultured Chinese hamster ovary cells; assay: Chromosomal aberrations in cultured Chinese hamster ovary cells; format: cell-based; details: CHO cells, doses tested 12–140 mg/ml
[6] = tested on: mouse lymphoma cells, L5178Y; assay: Mutagenicity in mouse lymphoma cells; format: cell-based; details: 2.5–50 mg/ml
Text: as §2

[7] = Total plasma homocysteine in rats given TTA; format: in vivo; details: Male Wistar rats, 300 mg TTA per kg body weight per day in 10 days
Description: Increased levels of homocysteine, i.e. hyperhomocysteinemia has been proposed to be associated with arterial diseases, and we thus measured the levels of homocysteine in plasma samples from Male Wistar rats given 300 mg TTA per kg body weight per day in 10 days.
Total plasma homocysteine was measured by a fully automated fluorescence assay. 30 μl plasma was reduced by 30 μl NaBH4/DMSO solution (6 mol/L). After 1.5 min 20 μl of the fluorescence reagent monobromobimane (25 mmol/L) in acetonitrile was added and allowed to react for 3 min. 20 μl of the sample was then immediately analysed with HPLC by injection on a strong cation-exchange column, and then by column switching into a cyclohexyl silica column. The SCX column was eluted isocratically and the CH column was eluted with a linear methanol gradient (17–35% in 5 min) in 20 mmol/L formate buffer. The homocysteine was eluted at a retention time of 4.5 min.

[8] = tested on: restenosis (coronary artery, LAD or LCx); assay: Prevention of restenosis in mini pigs, local administration of TTA, quantitative angiography and histology; format: in vivo; details: minipigs; for Luminal diameter: local TTA 3 x 0.5 ml (0.33 mg/ml)
Text: (§3) Various local drug delivery systems have been developed to enable local application of pharmacological agents in conjunction with PTCA. In this study 20 minipigs were randomised to placebo or active treatment with the fatty acid analogue tetradecylthioaceticacid acid (TTA) via a Transport® multiphorous angioplasty balloon catheter. This catheter has a sleeve embracing the balloon and the drug is delivered through a separate lumen connected to the sleeve which has multiple holes.
(§4) Coronary balloon angioplasty injury using an oversized balloon was performed to the LAD or LCx followed by 3 bolus deliveries of 0.5 ml (0.33 mg/ml TTA) of active drug/placebo. Quantitative angiography as indicated in the preceding sections was performed before and after injury, and after 4 weeks follow-up. Subsequently the pigs were sacrificed, perfusion-fixed with glutaraldehyde and the vessels prepared for histology with computer assisted planimetry.

[9] = tested on: human smooth muscle cells (SMC); assay: Proliferation of cultured smooth muscle cells (cell counting); format: cell-based; details: 100 μM with BSA, cells counted after 3 and 6 days, FIG. 3
Description: SMC are human smooth muscle cells available from American Type Culture Collection (Type 1999-CRL). The SMC cells were cultured in bottles (75 cm^2) in Ham's F12K medium. 24 hours after inoculation, the fatty acids and BSA in a molar ratio of 1:2.5 were added to the medium, i.e. to a final concentration of palmitic acid and TTA of 100 μM. After 3 and 6 days the cells were trypsinated, and the number of cells determined by using a light microscopy with counting chambers (Leitz Wetzler).

[10] = tested on: mitochondrial β-oxidation system; assay: Mitochondrial β-oxidation
Text: The studies have shown that TTA has properties very similar to natural fatty acids, the main difference being that TTA is not oxidised by the mitochondrial β-oxidation system.
as §1

[11] = Hepatic and plasma fatty acid composition after TTA administration to rats; format: in vivo; details: 12 weeks
Text: Thus the compound of the present invention modifies the composition of the lipids in various tissues.

[12] = tested on: restenosis; assay: IVUS (intravascular ultrasound) after balloon injury; format: in vivo, minipigs
Description: (§5) A follow-up angiography was performed in the same frontal view after 10 weeks, following the same procedure as indicated above, by using ioxaglate (Hexabrix®) as contrast medium. The sheath was now inserted in the left carotid artery. Intravascular ultrasound was performed to quantitate wall thickness and lumen diameter. After angiography a laparotomy was performed and the abdominal aorta was cannulated with an 18G infusion-needle. The animals were euthanised by giving overdose pentobarbital intraarterially via the sheath in the left carotid artery.
as §3, §4
The ICUS (intracoronary ultrasound) results were consistent with the angiography data.

[13] = 28 days toxicity study in dogs (GLP); format: in vivo
Text: A 28 days toxicity study in dogs according to GLP guide-lines has been performed by Corning Hazleton (Europe), England. […] Some lipid related parameters were lowered in the animals given high dosages. This is consistent with the pharmacological activity of TTA.

[14] = tested on: restenosis (iliac artery); assay: Prevention of restenosis in rabbits given TTA orally, quantitative angiography after iliac balloon angioplasty; format: in vivo, Chinchilla (Chbb:CH) rabbits; details: for diameter artery (Ds) / dilatation/stenosis (Dr − Ds)/Dr / reference diameter (Dr): TTA 800 mg daily oral
Description: Fourteen Chinchilla (Chbb:CH) rabbits of either sex were randomised either to receive supplement with TTA fatty acids 800 mg daily (mean weight 3.6±0.09 kg) or to placebo (mean weight 3.5±0.47 kg).
The animals were pre-treated with TTA given as oral supplements, mixed with daily food pellets, for three weeks to ensure accumulation of the fatty acid analogues in the tissues.
After premedication with 0.5 ml fentanyl (0.315 mg/ml) and fluanisone (10 mg/ml) (Hypnorm®) intramuscularly, the rabbits were anaesthetised by administering diazepam 4 mg/kg intraperitoneally and maintained by additional 0.3–0.4 ml of a 1:1 mixture of Hypnorm® and diazepam, usually necessary once during the procedure.
After local infiltration of the skin by lignocaine (Xylocaine®) and surgical cut-down, the right carotid artery was cannulated by a 6F sheath. A bolus of 100 U/kg of heparin was administered intraarterially. Before the angioplasty, an angiography was performed in the frontal view by injecting 3 ml of ioxaglate (Hexabrix®) as contrast medium via a Berman® catheter.
An angioplasty balloon catheter (Express®) of 2.5 mm was positioned in the proximal part of each iliac artery and balloon angioplasty was performed with 2 balloon inflations at the same site in each artery, at 8 and 12 atmosphere for 30 seconds each to overstretch the artery. The balloon marker, on the middle of the 20 mm long balloon, was placed over the ilio-sacral joint, thus ensuring that the balloon was positioned at identical sites. Inflation was performed using a pressure manometer (Encore® 26 inflation device, Scimed, Boston Scientific corporation).
A further angiography was performed in the same frontal view as the first angiography to assure artery patency. The carotid artery was ligated and the skin was closed with ligatures. Buprenorfin 0.3 mg (Temgesic®) and penicillin were given subcutaneous once daily for the first days.
as §5
The frames with maximal opacification from baseline angiographies (before and after dilatation), as well as from the follow-up angiography were stored for subsequent quantitative analysis. Arterial diameter before and after dilatation as well as the balloon to artery ratio were measured. The minimal luminal diameter, reference diameter and stenosis were determined. All measurements were performed with a digital electronic calliper (Sandhill, model EC-1)(12). A balloon angioplasty catheter (Express® 2.5 mm), placed on the abdomen and dilated at 8 atmospheres (rated balloon diameter 2.5 mm) served for calibration.
Acute gain: minimal luminal diameter (MLD) post dilatation minus diameter artery before dilatation. Late loss: MLD post dilatation minus MLD at control angiography. Loss index: late loss divided by acute gain.

[15] = moderate doses, within days of treatment
[16] = control angiography (follow-up)

CCCCCCCCCCCCCCSC[14C](=O)O [1-^14C-TTA]
presence of active drug in the coronary arteries [1]: confirmed the presence of active drug

CCCCCCCCCCCCCC[Se]CC(=O)O [TSA, tetradecylselenioacetic acid]
potency in lowering plasma triacylglycerols and cholesterol [2]: far more potent
induction of mutations [3]: did not induce mutations
induction of mutations [4]: did not induce mutations
chromosomal aberrations [5]: no aberrations were induced

Tetradecylthioacetic acid [TTA]
potency in lowering plasma triacylglycerols and cholesterol [2]: far more potent
plasma cholesterol levels [2, 15]: decreased
plasma triacylglycerol levels [2, 15]: decreased
mutagenicity [6]: not mutagenic
Plasma concentration of homocysteine [7]: 5.4 ± 1.0 µmol/L
Luminal diameter ([8]; after PTCA): 3.2 mm
Luminal diameter ([8]; at follow-up): 2.2 mm
Luminal diameter ([8]; before PTCA): 2.6 mm
maximal intimal thickness ([8]; treated group with respect to the placebo group): unchanged
induction of mutations [3]: did not induce mutations
induction of mutations [4]: did not induce mutations
growth of smooth muscle cells [9]: inhibiting effect
oxidation by the mitochondrial β-oxidation system [10]: not oxidised
hepatic and plasma content of monounsaturated fatty acids (mainly oleic acid) [11]: nearly doubled
polyunsaturated fatty acids (mainly linoleic acid and DHA) [11]: decreased
Area site [12]: 0.61 ± 0.152 mm^2
Max. diameter site [12]: 2.87 ± 0.408 mm
Minimal diameter site [12]: 2.76 ± 0.381 mm
chromosomal aberrations [5]: no aberrations were induced
body weight ([13]; 500 mg/kg/day): body weight loss
lipid related parameters ([13]; animals given high dosages): lowered
evidence of toxicity ([13]; dose levels of 50 or 500 mg/day/kg): no evidence of toxicity
tolerability of oral administration ([13]; oral, dose levels up to 500 mg/kg/day): generally well tolerated
late loss ([14]; MLD post dilatation minus MLD at control angiography): 0.76 ± 0.38
acute gain ([14]; MLD post dilatation minus diameter artery before dilatation): 0.48 ± 0.22 mm
diameter artery (Ds) ([14]; after dilatation): 2.36 ± 0.19 mm
dilatation/stenosis (Dr − Ds)/Dr ([14]; after dilatation): −31.2
reference diameter (Dr) ([14]; after dilatation): 1.80 ± 0.17 mm
diameter artery (Ds) ([14]; before dilatation): 1.91 ± 0.18 mm
reference diameter (Dr) ([14]; before dilatation): 1.91 ± 0.18 mm
diameter artery (Ds) [14, 16]: 1.60 ± 0.26 mm
dilatation/stenosis (Dr − Ds)/Dr [14, 16]: 23.5
reference diameter (Dr) [14, 16]: 2.07 ± 0.15 mm
decrease in artery diameter at follow-up ([14]; follow-up after angioplasty, oral TTA): inhibited the decrease in artery diameter
loss index ([14]; late loss divided by acute gain): 1.53 ± 0.46
